Experimental data taken from patent publication US20220315621A1, “COMPOSITIONS AND METHODS FOR TREATING CNS DISORDERS” (priority 2017, published 2022).
Read-outs that look alike come from different tables or passages of the source.

Biological target: GABAA receptor (rat brain cortical membranes, [35S]-TBPS binding)
Settings: rat brain cortical membranes, 3 nM [35S]-TBPS, in the presence of 5 mM GABA

`CCOC[C@@]1(O)CC[C@H]2[C@@H](CC[C@@H]3[C@@H]2CC[C@]2(C)[C@@H](O)CCC[C@@H]32)C1` [Compound I-39, (1S,4aS,4bR,6aS,8R,10aS,10bR,12aS)-8-(ethoxymethyl)-12a-methyloctadecahydrochrysene-1,8-diol] was tested, and the IC50 (Table I-4) was 1000 to 10000 nM.
Compound `CCOC[C@@]1(O)CC[C@H]2[C@@H](CC[C@@H]3[C@@H]2CC[C@]2(C)[C@@H](OC)CCC[C@@H]32)C1` [Compound I-40, (2R,4aS,4bR,6aS,7S,10aS,10bR,12aS)-2-(ethoxymethyl)-7-methoxy-6a-methyloctadecahydrochrysen-2-ol] has an IC50 (Table I-4) of 100 to 1000 nM.
`C[C@@H]1CC[C@H]2[C@@H]3CC[C@@H]4C[C@](C)(O)CC[C@@H]4[C@H]3CC[C@]2(C)C1=O` [Compound I-50, (2R,4aS,4bR,6aR,8R,10aS,10bR,12aS)-8-hydroxy-2,8,12a-trimethylhexadecahydrochrysen-1(2H)-one] was tested, and the IC50 (Table I-4) was 1000 to 10000 nM.
Compound `COC[C@@]1(O)CC[C@H]2[C@H](CC[C@@H]3[C@@H]2CC[C@]2(C)C(=O)[C@H](C)CC[C@@H]32)C1` [Compound I-53, (2R,4aS,4bR,6aR,8R,10aS,10bR,12aS)-8-hydroxy-8-(methoxymethyl)-2,12a-dimethylhexadecahydrochrysen-1(2H)-one] has an IC50 (Table I-4) of 1000 to 10000 nM.
For `CC(=O)[C@H]1C[C@H]2[C@@H]3CC[C@@H]4C[C@](C)(O)CC[C@]4(C)[C@H]3CC[C@]12C` [Compound I-103, 1-((1S,2aS,2bR,4aR,6R,8aS,8bS,10aS)-6-hydroxy-6,8a,10a-trimethylhexadecahydrocyclobuta[a]phenanthren-1-yl)ethan-1-one], the IC50 (Table I-5) was 100 to 1000 nM.
Work on `CC(=O)[C@@H]1C[C@H]2[C@@H]3CC[C@@H]4C[C@](C)(O)CC[C@]4(C)[C@H]3CC[C@]12C` [Compound I-103a, 1-((1R,2aS,2bR,4aR,6R,8aS,8bS,10aS)-6-hydroxy-6,8a,10a-trimethylhexadecahydrocyclobuta[a]phenanthren-1-yl)ethan-1-one] yielded an IC50 (Table I-5) of 1000 to 10000 nM.
With `C[C@@]1(O)CC[C@H]2[C@H](CC[C@@H]3[C@@H]2CC[C@]2(C)[C@H](C(=O)Cn4cc(C#N)cn4)C[C@@H]32)C1` [Compound I-105, 1-(2-((1R,2aS,2bR,4aR,6R,8aS,8bR,10aS)-6-hydroxy-6,10a-dimethylhexadecahydrocyclobuta[a]phenanthren-1-yl)-2-oxoethyl)-1H-pyrazole-4-carbonitrile] the IC50 (Table I-5) was 1000 to 10000 nM.
Compound `C[C@@]1(O)CC[C@@]2(C)[C@H](CC[C@@H]3[C@@H]2CC[C@]2(C)[C@@H](C(=O)Cn4cc(C#N)cn4)C[C@@H]32)C1` [Compound I-106, 1-(2-((1S,2aS,2bR,4aR,6R,8aS,8bS,10aS)-6-hydroxy-6,8a,10a-trimethylhexadecahydrocyclobuta[a]phenanthren-1-yl)-2-oxoethyl)-1H-pyrazole-4-carbonitrile] has an IC50 (Table I-5) of 100 to 1000 nM.
`C[C@@]1(O)CC[C@@]2(C)[C@H](CC[C@@H]3[C@@H]2CC[C@]2(C)[C@@H](C(=O)Cn4nccn4)C[C@@H]32)C1` [Compound I-107, 1-((1S,2aS,2bR,4aR,6R,8aS,8bS,10aS)-6-hydroxy-6,8a,10a-trimethylhexadecahydrocyclobuta[a]phenanthren-1-yl)-2-(2H-1,2,3-triazol-2-yl)ethan-1-one] gave an IC50 (Table I-5) of 1000 to 10000 nM.
Work on `C[C@@]1(O)CC[C@@]2(C)[C@H](CC[C@@H]3[C@@H]2CC[C@]2(C)[C@@H](C(=O)Cn4ccnn4)C[C@@H]32)C1` [Compound I-107a, 1-((1S,2aS,2bR,4aR,6R,8aS,8bS,10aS)-6-hydroxy-6,8a,10a-trimethylhexadecahydrocyclobuta[a]phenanthren-1-yl)-2-(1H-1,2,3-triazol-1-yl)ethan-1-one] yielded an IC50 (Table I-5) of 1000 to 10000 nM.
For `COC[C@H]1C[C@H]2[C@@H]3CC[C@@H]4C[C@](C)(O)CC[C@@H]4[C@H]3CC[C@]12C` [Compound I-117, (1S,2aS,2bR,4aR,6R,8aS,8bR,10aS)-1-(methoxymethyl)-6,10a-dimethylhexadecahydrocyclobuta[a]phenanthren-6-ol], the IC50 (Table I-5) was 100 to 1000 nM.
`COC[C@@H]1C[C@H]2[C@@H]3CC[C@@H]4C[C@](C)(O)CC[C@@H]4[C@H]3CC[C@]12C` [Compound I-118, (1R,2aS,2bR,4aR,6R,8aS,8bR,10aS)-1-(methoxymethyl)-6,10a-dimethylhexadecahydrocyclobuta[a]phenanthren-6-ol] gave an IC50 (Table I-5) of 1000 to 10000 nM.
For `C[C@@]1(O)CC[C@H]2[C@H](CC[C@@H]3[C@@H]2CC[C@]2(C)[C@@H](CO)CCC[C@@H]32)C1` [I-A3, (2R,4aS,4bR,6aS,7S,10aS,10bR,12aR)-7-(hydroxymethyl)-2,6a-dimethyloctadecahydrochrysen-2-ol], the IC50 (Table I-4) was 100 to 1000 nM.
`CN(C[C@H]1CCC[C@H]2[C@@H]3CC[C@@H]4C[C@](C)(O)CC[C@@H]4[C@H]3CC[C@]12C)S(=O)(=O)c1ccccc1` [I-A8, N-(((1S,4aS,4bR,6aR,8R,10aS,10bR,12aS)-8-hydroxy-8,12a-dimethyloctadecahydrochrysen-l-yl)methyl)-N-methylbenzenesulfonamide] showed an IC50 (Table I-4) of 10 to 100 nM.
`C[C@@]1(O)CC[C@H]2[C@H](CC[C@@H]3[C@@H]2CC[C@]2(C)[C@@H](C(=O)Nc4ccccc4)C[C@@H]32)C1` [I-AA6, (1S,2aS,2bR,4aR,6R,8aS,8bR,10aS)-6-hydroxy-6,10a-dimethyl-N-phenylhexadecahydrocyclobuta[a]phenanthrene-1-carboxamide] was tested, and the IC50 (Table I-5) was 1000 to 10000 nM.
With `C[C@@]1(O)CC[C@H]2[C@H](CC[C@@H]3[C@@H]2CC[C@]2(C)[C@H](C(=O)Nc4ccccc4)C[C@@H]32)C1` [I-AA6a, (1R,2aS,2bR,4aR,6R,8aS,8bR,10aS)-6-hydroxy-6,10a-dimethyl-N-phenylhexadecahydrocyclobuta[a]phenanthrene-1-carboxamide] the IC50 (Table I-5) was 1000 to 10000 nM.
Compound `CC(=O)[C@H]1C[C@H]2[C@@H]3CC[C@@H]4C[C@](C)(O)CC[C@@H]4[C@H]3CC[C@]12C` [I-AA8, 1-((1S,2aS,2bR,4aR,6R,8aS,8bR,10aS)-6-hydroxy-6,10a-dimethylhexadecahydrocyclobuta[a]phenanthren-1-yl)ethan-1-one] has an IC50 (Table I-5) of 100 to 1000 nM.
`C[C@@]1(O)CC[C@H]2[C@H](CC[C@@H]3[C@@H]2CC[C@]2(C)[C@@H](C(=O)Cn4nccn4)C[C@@H]32)C1` [I-AA11, 1-((1S,2aS,2bR,4aR,6R,8aS,8bR,10aS)-6-hydroxy-6,10a-dimethylhexadecahydrocyclobuta[a]phenanthren-1-yl)-2-(2H-1,2,3-triazol-2-yl)ethan-1-one] showed an IC50 (Table I-5) of 1000 to 10000 nM.
`C[C@@]1(O)CC[C@H]2[C@H](CC[C@@H]3[C@@H]2CC[C@]2(C)[C@@H](C(=O)Cn4ccnn4)C[C@@H]32)C1` [I-AA12, 1-((1S,2aS,2bR,4aR,6R,8aS,8bR,10aS)-6-hydroxy-6,10a-dimethylhexadecahydrocyclobuta[a]phenanthren-1-yl)-2-(1H-1,2,3-triazol-1-yl)ethan-1-one] gave an IC50 (Table I-5) of 1000 to 10000 nM.
`C[C@@]1(O)CC[C@H]2[C@H](CC[C@@H]3[C@@H]2CC[C@]2(C)[C@@H](CO)C[C@@H]32)C1` [I-AB1, (1S,2aS,2bR,4aR,6R,8aS,8bR,10aS)-1-(hydroxymethyl)-6,10a-dimethylhexadecahydrocyclobutaialphenanthren-6-ol] was tested, and the IC50 (Table I-5) was 1000 to 10000 nM.
`C[C@@]1(O)CC[C@H]2[C@H](CC[C@@H]3[C@@H]2CC[C@]2(C)[C@H](CO)C[C@@H]32)C1` [I-AB1a, (1R,2aS,2bR,4aR,6R,8aS,8bR,10aS)-1-(hydroxymethyl)-6,10a-dimethylhexadecahydrocyclobuta[a]phenanthren-6-ol] gave an IC50 (Table I-5) of 1000 to 10000 nM.
In the case of `COC[C@@]1(O)CC[C@H]2[C@H](CC[C@@H]3[C@@H]2CC[C@]2(C)[C@@H](C(=O)Nc4ccccc4)C[C@@H]32)C1` [I-AC8, (1S,2aS,2bR,4aR,6R,8aS,8bR,10aS)-6-hydroxy-6-(methoxymethyl)-10a-methyl-N-phenylhexadecahydrocyclobuta[a]phenanthrene-1-carboxamide], the IC50 (Table I-5) is reported as 1000 to 10000 nM.
`COC[C@@]1(O)CC[C@H]2[C@H](CC[C@@H]3[C@@H]2CC[C@]2(C)[C@H](C(=O)Nc4ccccc4)C[C@@H]32)C1` [I-AC8a, (1R,2aS,2bR,4aR,6R,8aS,8bR,10aS)-6-hydroxy-6-(methoxymethyl)-10a-methyl-N-phenylhexadecahydrocyclobuta[a]phenanthrene-1-carboxamide] gave an IC50 (Table I-5) of 1000 to 10000 nM.
`COC[C@@]1(O)CC[C@H]2[C@H](CC[C@@H]3[C@@H]2CC[C@]2(C)[C@@H](C(=O)N4CCCC[C@@H]4C)C[C@@H]32)C1` [I-AC9, ((1S,2aS,2bR,4aR,6R,8aS,8bR,10aS)-6-hydroxy-6-(methoxymethyl)-10a-methylhexadecahydrocyclobutaialphenanthren-1-yl)((S)-2-methylpiperidin-1-yl)methanone] gave an IC50 (Table I-5) of 1000 to 10000 nM.
Compound `COC[C@@]1(O)CC[C@H]2[C@H](CC[C@@H]3[C@@H]2CC[C@]2(C)[C@@H](C(C)=O)C[C@@H]32)C1` [I-AC11, 1-((1S,2aS,2bR,4aR,6R,8aS,8bR,10aS)-6-hydroxy-6-(methoxymethyl)-10a-methylhexadecahydrocyclobuta[a]phenanthren-1-yl)ethan-1-one] has an IC50 (Table I-5) of 100 to 1000 nM.
`COC[C@@]1(O)CC[C@H]2[C@H](CC[C@@H]3[C@@H]2CC[C@]2(C)[C@@H](C(=O)Cn4cc(C#N)cn4)C[C@@H]32)C1` [I-AC14, 1-(2-((1S,2aS,2bR,4aR,6R,8aS,8bR,10aS)-6-hydroxy-6-(methoxymethyl)-10a-methylhexadecahydrocyclobuta[a]phenanthren-1-yl)-2-oxoethyl)-1H-pyrazole-4-carbonitrile] showed an IC50 (Table I-5) of 100 to 1000 nM.
For `CC(=O)[C@H]1C[C@H]2[C@@H]3CC[C@H]4C[C@](C)(O)CC[C@@H]4[C@H]3CC[C@]12C` [I-AD8, 1-((1S,2aS,2bR,4aS,6R,8aS,8bR,10aS)-6-hydroxy-6,10a-dimethylhexadecahydrocyclobuta[a]phenanthren-1-yl)ethan-1-one], the IC50 (Table I-5) was 1000 to 10000 nM.
